Results from ChEMBL document CHEMBL1201862, “PubChem BioAssay data set” (2004).
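Dose response: 5 concentrations. Exposure: 48 h. Format: 96-well plates. Endpoint: linear interpolation; highest concentration if not reached. GI50 = concentration required for 50% inhibition of growth.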 Active and inactive are the calls of the source. No stated cut-off is given here; in the data, active = GI50 up to about 1.1 µM and inactive = higher. Where a SMILES comes first, the peptide text is derived from it. [ ]: non-standard residue; d: D form. The star is where a group is joined. ξ: configuration not given here. ξD = NC(CC(=O)O)C(=O)O; Boc = CC(C)(C)OC(=O)*; Aib = CC(C)(N)C(=O)O; OBn = c1ccc(CO*)cc1

Columns and labels:
Assay in all cases: inhibition of tumour cell growth, NCI panel, 48 h
K562 = test system: K562
IGROV-1 = test system: IGROV-1
SF-539 = test system: SF-539
UACC-62 = test system: UACC-62
U-251 = test system: U-251
SF-268 = test system: SF-268
M14 = test system: M14
SNB-75 = test system: SNB-75
A549 = test system: A549
SNB-19 = test system: SNB-19
OVCAR-3 = test system: OVCAR-3
HCC 2998 = test system: HCC 2998
UO-31 = test system: UO-31
OVCAR-8 = test system: OVCAR-8
NCI-H23 = test system: NCI-H23
TK-10 = test system: TK-10
SR = test system: SR
LOX IMVI = test system: LOX IMVI
MDA-N = test system: MDA-N

Compound	GI50 (K562)	GI50 (IGROV-1)	GI50 (SF-539)	GI50 (UACC-62)	GI50 (U-251)	GI50 (SF-268)	GI50 (M14)	GI50 (SNB-75)	GI50 (A549)	GI50 (SNB-19)	GI50 (OVCAR-3)	GI50 (HCC 2998)	GI50 (UO-31)	GI50 (OVCAR-8)	GI50 (NCI-H23)	GI50 (TK-10)	GI50 (SR)	GI50 (LOX IMVI)	GI50 (MDA-N)
Cn1ccnc1S/C(=C\C=C(C#N)C#N)c1ccc(Cl)cc1	0.252 µM (active)	2.69 µM (inactive)	1.21 µM (inactive)	2.34 µM (inactive)	2.82 µM (inactive)	1.84 µM (inactive)	0.993 µM (active)	5.37 µM (inactive)	6.27 µM (inactive)	3.48 µM (inactive)	2.22 µM (inactive)	4.92 µM (inactive)	2.64 µM (inactive)	1.12 µM (active)	1.61 µM (inactive)	0.492 µM (active)	0.143 µM (active)	–	–
O=C(CCc1ccccc1)On1c(-c2ccccc2)nc2ccccc2c1=S	4.6 µM (inactive)	0.515 µM (active)	3.92 µM (inactive)	3.94 µM (inactive)	4.38 µM (inactive)	3.07 µM (inactive)	5.57 µM (inactive)	9.77 µM (inactive)	3.65 µM (inactive)	14.8 µM (inactive)	4.99 µM (inactive)	4.52 µM (inactive)	3.66 µM (inactive)	4.44 µM (inactive)	4.3 µM (inactive)	18.9 µM (inactive)	–	0.456 µM (active)	12.9 µM (inactive)
CCOC(=O)c1ccc(N(C)Cc2cnc3nc(N)nc(N)c3n2)cc1	2.58 µM (inactive)	5.71 µM (inactive)	8.13 µM (inactive)	5.42 µM (inactive)	8.99 µM (inactive)	9.51 µM (inactive)	7.83 µM (inactive)	16.3 µM (inactive)	–	11.6 µM (inactive)	14.5 µM (inactive)	–	14.2 µM (inactive)	7.64 µM (inactive)	9.04 µM (inactive)	13.8 µM (inactive)	6.81 µM (inactive)	5.5 µM (inactive)	18.5 µM (inactive)
Cc1ccc(-c2c(C#N)c(-c3ccc(C)cc3)n(NS(=O)(=O)c3ccccc3)c(=O)c2C#N)cc1	49.2 µM (inactive)	44.5 µM (inactive)	21.2 µM (inactive)	34.1 µM (inactive)	49.9 µM (inactive)	> 100 µM (inactive)	40.6 µM (inactive)	> 100 µM (inactive)	41.2 µM (inactive)	42.1 µM (inactive)	–	25.2 µM (inactive)	–	69.2 µM (inactive)	–	76.2 µM (inactive)	–	35 µM (inactive)	–
CCOC(=O)/C=C(/C(=O)OCC)n1c(=O)c(C)cn(C2CC(N=[N+]=[N-])C(CO)O2)c1=O (stereo not drawn)	1.86 µM (inactive)	37.3 µM (inactive)	22.1 µM (inactive)	85.9 µM (inactive)	18 µM (inactive)	44.8 µM (inactive)	26.4 µM (inactive)	56.9 µM (inactive)	33.9 µM (inactive)	> 100 µM (inactive)	19.5 µM (inactive)	16.4 µM (inactive)	46.6 µM (inactive)	28.9 µM (inactive)	34 µM (inactive)	37.2 µM (inactive)	–	27.5 µM (inactive)	43 µM (inactive)
CC(C)(C)OC(=O)NC(CC(=O)OCc1ccccc1)C(=O)NC(C)(C)C(N)=O (stereo not drawn) (Boc-[ξD](OBn)-[Aib]-NH2)	> 100 µM (inactive)	> 100 µM (inactive)	> 100 µM (inactive)	0.0204 µM (active)	> 100 µM (inactive)	> 100 µM (inactive)	> 100 µM (inactive)	> 100 µM (inactive)	> 100 µM (inactive)	> 100 µM (inactive)	> 100 µM (inactive)	–	> 100 µM (inactive)	> 100 µM (inactive)	> 100 µM (inactive)	> 100 µM (inactive)	–	> 100 µM (inactive)	> 100 µM (inactive)
COC(=O)C(Cc1ccc(Oc2cc(CC(NC(=O)c3ccccc3)C(=O)OC)ccc2OC)cc1)NC(=O)c1ccccc1 (stereo not drawn)	2.01 µM (inactive)	6.3 µM (inactive)	30.1 µM (inactive)	17.9 µM (inactive)	32.8 µM (inactive)	19.7 µM (inactive)	6.95 µM (inactive)	29.7 µM (inactive)	25.7 µM (inactive)	35.5 µM (inactive)	24.7 µM (inactive)	13.5 µM (inactive)	9.59 µM (inactive)	10.7 µM (inactive)	22.9 µM (inactive)	7.53 µM (inactive)	–	8.26 µM (inactive)	14.2 µM (inactive)
CCC12CCCN3CCc4c(n(c5ccccc45)C(O)(C(=O)OC)C1)C32 (stereo not drawn)	–	> 100 µM (inactive)	> 100 µM (inactive)	> 100 µM (inactive)	> 100 µM (inactive)	> 100 µM (inactive)	> 100 µM (inactive)	> 100 µM (inactive)	> 100 µM (inactive)	> 100 µM (inactive)	> 100 µM (inactive)	> 100 µM (inactive)	> 100 µM (inactive)	> 100 µM (inactive)	> 100 µM (inactive)	> 100 µM (inactive)	–	> 100 µM (inactive)	> 100 µM (inactive)
CCOC(=O)CCC(NC(=O)C(CCC(=O)OCC)NC(=O)C(Cc1ccc([N+](=O)[O-])cc1)NC(C)=O)C(=O)NNC(=O)OC(C)(C)C (stereo not drawn)	> 100 µM (inactive)	> 100 µM (inactive)	–	> 100 µM (inactive)	> 100 µM (inactive)	–	> 100 µM (inactive)	> 100 µM (inactive)	> 100 µM (inactive)	> 100 µM (inactive)	–	> 100 µM (inactive)	> 100 µM (inactive)	> 100 µM (inactive)	65.6 µM (inactive)	> 100 µM (inactive)	–	–	> 100 µM (inactive)
COc1ccc(NC(=O)/C(=N\NC(=O)C[n+]2ccccc2)c2c(O)c3ccc(O)cc3oc2=O)c([N+](=O)[O-])c1	> 100 µM (inactive)	> 100 µM (inactive)	> 100 µM (inactive)	> 100 µM (inactive)	> 100 µM (inactive)	> 100 µM (inactive)	> 100 µM (inactive)	92 µM (inactive)	> 100 µM (inactive)	> 100 µM (inactive)	> 100 µM (inactive)	> 100 µM (inactive)	> 100 µM (inactive)	> 100 µM (inactive)	> 100 µM (inactive)	> 100 µM (inactive)	–	> 100 µM (inactive)	> 100 µM (inactive)
Cc1ccc(C(=O)/C=C(O)/C(O)=C/C(=O)c2ccc(C)cc2C)c(C)c1	2.96 µM (inactive)	1.98 µM (inactive)	1.85 µM (inactive)	1.79 µM (inactive)	1.75 µM (inactive)	1.91 µM (inactive)	1.93 µM (inactive)	1.95 µM (inactive)	2.48 µM (inactive)	2.49 µM (inactive)	1.76 µM (inactive)	1.92 µM (inactive)	1.36 µM (inactive)	2.86 µM (inactive)	1.65 µM (inactive)	1.8 µM (inactive)	2.33 µM (inactive)	2.16 µM (inactive)	–
COc1ccc(C(=O)c2sc(Nc3ccccc3)nc2N)cc1	2.25 µM (inactive)	14.3 µM (inactive)	14.3 µM (inactive)	> 100 µM (inactive)	12.7 µM (inactive)	28.4 µM (inactive)	> 100 µM (inactive)	–	24.2 µM (inactive)	22.7 µM (inactive)	> 26.9 µM (inactive)	> 100 µM (inactive)	55.8 µM (inactive)	29 µM (inactive)	> 100 µM (inactive)	> 55.7 µM (inactive)	0.778 µM (active)	> 100 µM (inactive)	–
CCCCn1c(C)c(C)c2c1NN=C(C#N)S2(=O)=O	> 100 µM (inactive)	> 100 µM (inactive)	> 100 µM (inactive)	> 100 µM (inactive)	> 100 µM (inactive)	> 100 µM (inactive)	> 100 µM (inactive)	> 100 µM (inactive)	> 100 µM (inactive)	> 100 µM (inactive)	> 100 µM (inactive)	> 100 µM (inactive)	> 100 µM (inactive)	> 100 µM (inactive)	> 100 µM (inactive)	> 100 µM (inactive)	75 µM (inactive)	> 100 µM (inactive)	–
O=C(O)/C(=C\c1ccccc1)Cc1ccccc1	> 100 µM (inactive)	> 100 µM (inactive)	83 µM (inactive)	> 100 µM (inactive)	> 100 µM (inactive)	> 100 µM (inactive)	> 100 µM (inactive)	> 100 µM (inactive)	> 100 µM (inactive)	> 100 µM (inactive)	> 100 µM (inactive)	> 100 µM (inactive)	> 100 µM (inactive)	> 100 µM (inactive)	> 100 µM (inactive)	> 100 µM (inactive)	–	> 100 µM (inactive)	> 100 µM (inactive)
CCCCCCCC/C=C\CCCCCCCC(=O)OC[C@]1(CO)CCC(=O)O1	> 100 µM (inactive)	> 100 µM (inactive)	–	> 100 µM (inactive)	> 100 µM (inactive)	> 100 µM (inactive)	> 100 µM (inactive)	> 100 µM (inactive)	> 100 µM (inactive)	> 100 µM (inactive)	> 100 µM (inactive)	> 100 µM (inactive)	> 100 µM (inactive)	> 100 µM (inactive)	> 100 µM (inactive)	> 100 µM (inactive)	> 100 µM (inactive)	> 100 µM (inactive)	–
CC(=O)c1sc2c(c1O)c(=O)n(-c1ccccc1)c(=S)n2-c1ccccc1	> 100 µM (inactive)	> 100 µM (inactive)	–	> 100 µM (inactive)	> 100 µM (inactive)	> 100 µM (inactive)	> 100 µM (inactive)	58.7 µM (inactive)	> 100 µM (inactive)	> 100 µM (inactive)	> 100 µM (inactive)	> 100 µM (inactive)	> 100 µM (inactive)	> 100 µM (inactive)	> 100 µM (inactive)	> 100 µM (inactive)	–	> 100 µM (inactive)	> 100 µM (inactive)
